pIC50: −log10 of the molar value.
The compounds below were run against T1, human MRGPRX2 (Homo sapiens, UniProt Q96LB1) (assay: MRGPRX2 Activity: IP-One HTRF antagonist assay in CHO cells stably expressing human MRGPRX2, versus Cortistatin-14). Settings: versus 0.3 uM Cortistatin-14 agonist, IP-1 HTRF, read-out: MRGPR2 Antagonist Activity.
T1 construct: expressed in transfected cells
T1 sequence (Q96LB1 1-330): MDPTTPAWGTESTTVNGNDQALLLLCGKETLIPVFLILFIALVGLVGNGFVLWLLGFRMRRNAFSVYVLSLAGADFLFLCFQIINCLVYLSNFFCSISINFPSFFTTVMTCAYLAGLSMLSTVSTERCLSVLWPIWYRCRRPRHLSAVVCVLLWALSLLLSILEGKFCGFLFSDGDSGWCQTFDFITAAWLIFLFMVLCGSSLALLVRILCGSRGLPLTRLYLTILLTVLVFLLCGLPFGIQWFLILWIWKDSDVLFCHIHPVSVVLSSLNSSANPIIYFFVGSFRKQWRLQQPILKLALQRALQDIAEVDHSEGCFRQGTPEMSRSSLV
Type: cell-based
Method: CHO cells stably transfected to express human MRGPRX2 were maintained in an incubator at 37° C. with 5% CO2 and grown in F12 (HAM) media with 10% fetal bovine serum (FBS), 1% Glutamax, 1% penicillin/streptomycin, 800 μg/mL Geneticin (G418), and 300 μg/mL Hygromycin B. Cells were plated in a 384-well assay plate at 20,000 cells per well in 12 μL of Opti-MEM and kept in an incubator overnight. On the day of the assay, compounds solubilized at 10 mM in DMSO were added as a 10-point curve (30 uM final top concentration with 1:3 serial dilutions) using a Tecan D300E digital dispenser. Agonists were diluted in assay buffer (final concentrations of 5.7 mM Tris-HCl, 43 mM NaCl, 50 mM LiCl, pH=8) and 2 μL of the agonist Cortistatin-14 (CPC Scientific, catalog CORT-002) are added to each well. Final concentrations of agonists were 0.3 μM Cortistatin-14. Final concentrations of DMSO were kept consistent across the plate. Plates were incubated in the dark for 1 hr at 37° C. and then for 1 hr at room temperature. IP-1 standards and HTRF detection reagents were added according to the IP-One-Gq Kit purchased from Cisbio (part number 62IPAPEJ) and incubated in the dark for 1 hr at room temperature. The plate was read on a Molecular Devices SpectraMax iD5 plate reader. The HTRF ratio was calculated from the raw data and graphed using GraphPad Prism to calculate an IC50 value for each compound.
The activity ranges are denoted as follows: “+++++” denotes antagonist activity <50 nM; “++++” denotes antagonist activity between 51 and 100 nM; “+++” denotes activity between 101 and 500 nM; “++” denotes activity between 501 and 1000 nM; and “+” denotes activity >1000 nM

| pIC50 | Structure (SMILES) |
| --- | --- |
| > 7.30 | CNc1ccc(C(=O)N[C@H]2CC[C@@H](Nc3cccc4nc(C(F)F)cn34)CC2)cc1 [2-195] |
| 6.30 to 7.00 | O=C(N[C@H]1CC[C@@H](Nc2cccc3nc(C(F)F)cn23)CC1)c1ccc(F)cc1Cl [2-149] |
| 6.30 to 7.00 | CC(C)Oc1ccc(C(=O)N[C@H]2CC[C@@H](Nc3cccc4nc(C(F)(F)F)cn34)CC2)cc1Cl [2-207] |
| > 7.30 | Cn1cc(C(=O)N[C@H]2CC[C@@H](Nc3cccc4nc(C(F)(F)F)cn34)CC2)c2c(Cl)cccc21 [2-291] |
| > 7.30 | O=C(N[C@H]1CC[C@@H](Nc2cccc3nc(C(F)F)cn23)CC1)c1ccc(OCCF)cc1 [2-218] |
| < 6.00 | CC(=O)Nc1cccc(C(=O)N[C@H]2CC[C@@H](Nc3cccc4sc(C(F)(F)F)cc34)CC2)c1 [2-2] |
| 6.30 to 7.00 | COc1ccc(C(=O)N[C@H]2CC[C@@H](Nc3cccc4nc(C(F)F)cn34)CC2)c(F)c1 [2-27] |
| > 7.30 | O=C(N[C@H]1CC[C@@H](Nc2cccc3nc(C(F)(F)F)cn23)CC1)c1ccc(N2CCOCC2)cc1 [2-8] |
| 6.30 to 7.00 | O=C(N[C@H]1CC[C@@H](Nc2cccc3nc(C(F)(F)F)cn23)CC1)c1ccncc1 [2-162] |
| 6.30 to 7.00 | O=C(N[C@H]1CC[C@@H](Nc2cccc3nc(C(F)F)cn23)CC1)c1cccc2[nH]c(C(F)F)nc12 [2-151] |
| 6.30 to 7.00 | O=C(N[C@H]1CC[C@@H](Nc2cccc3nc(C(F)(F)F)cn23)CC1)c1cnn(CC(F)F)c1C(F)F [2-284] |
| 6.30 to 7.00 | CC(=O)c1cc2c(N[C@H]3CC[C@@H](NC(=O)c4ccc(F)cc4)CC3)cccc2s1 [1-5] |
| > 7.30 | O=C(N[C@H]1CC[C@@H](Nc2cccc3nc(C(F)(F)F)cn23)CC1)c1cc2cc(F)cnc2[nH]1 [2-120] |
| > 7.30 | O=C(N[C@H]1CC[C@@H](Nc2cccc3nc(C(F)(F)F)cn23)CC1)c1ccc(-n2cnnn2)cc1 [2-202] |
| 6.30 to 7.00 | CCc1cc(C(=O)N[C@H]2CC[C@@H](Nc3cccc4nc(C(F)(F)F)cn34)CC2)nn1CC [2-190] |
| > 7.30 | O=C(N[C@H]1CC[C@@H](Nc2cccc3nc(C(F)(F)F)cn23)CC1)c1ccc(NCC(F)F)cc1 [2-180] |
| > 7.30 | O=C(N[C@H]1CC[C@@H](Nc2cccc3nc(C(F)(F)F)cn23)CC1)c1cn(CC(F)(F)F)nc1C(F)F [Example 9, 3-(difluoromethyl)-1-(2,2,2-trifluoroethyl)-N-[4-[[2-(trifluoromethyl)imidazo[1,2-a]pyridin-5-yl]amino]cyclohexyl]pyrazole-4-carboxamide] |
| > 7.30 | CN(C)c1ccc(C(=O)N[C@H]2CC[C@@H](Nc3cccc4nc(C(F)(F)F)cn34)CC2)cc1 [2-158] |
| 7.00 to 7.29 | O=C(N[C@H]1CC[C@@H](Nc2cccc3nc(C(F)F)cn23)CC1)c1cn(C(F)(F)F)nc1Cl [2-295] |
| < 6.00 | COc1ccc(C(=O)N[C@H]2CC[C@@H](Nc3cccc4sc(C(F)(F)F)nc34)CC2)cc1 [1-17] |

| pIC50 | Structure (SMILES) |
| --- | --- |
| > 7.30 | O=C(N[C@H]1CC[C@@H](Nc2cccc3nc(C(F)F)cn23)CC1)c1cccc2cn[nH]c12 [2-193] |
| > 7.30 | NS(=O)(=O)c1ccc(C(=O)N[C@H]2CC[C@@H](Nc3cccc4nc(C(F)(F)F)cn34)CC2)cc1 [2-204] |
| 6.30 to 7.00 | Cn1cc(C(=O)N[C@H]2CC[C@@H](Nc3cccc4nc(C(F)(F)F)cn34)CC2)nn1 [2-233] |
| > 7.30 | CN(C)c1ccc(C(=O)N[C@H]2CC[C@@H](Nc3cccc4nc(C#N)cn34)CC2)cc1 [2-258] |
| > 7.30 | O=C(N[C@H]1CC[C@@H](Nc2cccc3nc(C(F)(F)F)cn23)CC1)c1c[nH]c2ccccc12 [2-201] |
| > 7.30 | O=C(N[C@H]1CC[C@@H](Nc2cccc3nc(C(F)(F)F)cn23)CC1)c1cn(C(F)F)nc1Cl [2-297] |
| 7.00 to 7.29 | CN(C)c1ccc(C(=O)N[C@H]2CC[C@@H](Nc3cccc4nc(C(F)(F)F)cn34)CC2)c(F)c1 [2-159] |
| > 7.30 | O=C(N[C@H]1CC[C@@H](Nc2cccc3nc(C(F)F)cn23)CC1)c1c[nH]nc1NCC(F)F [2-194] |
| 6.30 to 7.00 | N#Cc1cccc(C(=O)N[C@H]2CC[C@@H](Nc3cccc4sc(C(F)(F)F)cc34)CC2)c1 [Example 5, 3-cyano-N-((1 S,4S)-4-((2-(trifluoromethyl)benzo[b]thiophen-4-yl)amino)cyclohexyl)benzamide] |
| 7.00 to 7.29 | COc1cccc2cc(C(=O)N[C@H]3CC[C@@H](Nc4cccc5nc(C(F)(F)F)cn45)CC3)oc12 [2-166] |
| < 6.00 | CCOCc1cc2c(N[C@H]3CCC[C@@H](NC(=O)c4ccc(OC)cc4)C3)cccc2s1 [1-3] |
| > 7.30 | O=C(N[C@H]1CC[C@@H](Nc2cccc3nc(C(F)(F)F)cn23)CC1)c1ccc(NCC(F)(F)F)cc1 [2-23] |
| > 7.30 | Cc1nc2cccc(C(=O)N[C@H]3CC[C@@H](Nc4cccc5nc(C(F)(F)F)cn45)CC3)c2s1 [2-169] |
| 6.30 to 7.00 | CNc1ccc(C(=O)N[C@H]2CC[C@@H](Nc3cccc4nc(C#N)cn34)CC2)cc1 [2-259] |
| 7.00 to 7.29 | Cn1ncc(C(=O)N[C@H]2CC[C@@H](Nc3cccc4nc(C(F)F)cn34)CC2)c1NCC(F)F [2-270] |
| 6.30 to 7.00 | COc1ccc(C(=O)N[C@@H]2CCC[C@H](Nc3cccc4sc(C(F)(F)F)cc34)C2)cc1 [Example 2, 4-methoxy-N-((1R,3S)-3-((2-(trifluoromethyl)benzo[b]thiophen-4-yl)amino)cyclohexyl)benzamide] |
| 6.30 to 7.00 | Cn1cc(C(=O)N[C@H]2CC[C@@H](Nc3cccc4nc(C(F)F)cn34)CC2)c(C(F)F)n1 [2-286] |
| 6.30 to 7.00 | COc1ccc(C(=O)N[C@H]2CC[C@@H](Nc3cc(C)cc4nc(C(F)(F)F)cn34)CC2)cc1 [1-23] |
| > 7.30 | Cn1cc(C(=O)N[C@H]2CC[C@@H](Nc3cccc4nc(C(F)F)cn34)CC2)c(NCC(F)F)n1 [2-288] |
| 6.00 to 6.30 | COc1ccc(C(=O)N[C@@H]2CCC[C@H](Nc3cccc4oc(C(F)(F)F)nc34)C2)cc1 [Example 4, 4-methoxy-N-[(1R,3S)-3-[[2-(trifluoromethyl)-1,3-benzoxazol-4-yl]amino]cyclohexyl]benzamide] |

| pIC50 | Structure (SMILES) |
| --- | --- |
| 6.30 to 7.00 | O=C(N[C@H]1CC[C@@H](Nc2cccc3nc(C(F)F)cn23)CC1)c1cncs1 [2-147] |
| < 6.00 | COc1ccc(C(=O)N[C@@H]2CCC[C@H](Nc3cccc4sc(C(C)=O)cc34)C2)cc1 [1-4] |
| > 7.30 | O=C(N[C@H]1CC[C@@H](Nc2cccc3nc(C(F)(F)F)cn23)CC1)c1ccc(F)cc1 [2-157] |
| 7.00 to 7.29 | COc1ccc(C(=O)N[C@@H]2CCC[C@H](Nc3cc(F)cc4nc(C(F)(F)F)cn34)C2)cc1 [1-31] |
| 7.00 to 7.29 | O=C(N[C@H]1CC[C@@H](Nc2cccc3nc(C(F)F)cn23)CC1)c1ccc(C(F)F)cc1 [2-285] |
| > 7.30 | O=C(N[C@H]1CC[C@@H](Nc2cccc3nc(C(F)(F)F)cn23)CC1)c1cccc2[nH]ccc12 [2-232] |
| 6.30 to 7.00 | CCn1ncc(C(=O)N[C@H]2CC[C@@H](Nc3cccc4nc(C(F)(F)F)cn34)CC2)c1Cl [2-292] |
| 6.30 to 7.00 | COc1cccc(C(=O)N[C@H]2CC[C@@H](Nc3cccc4nc(C#N)cn34)CC2)c1 [2-260] |
| 6.30 to 7.00 | O=C(N[C@H]1CC[C@@H](Nc2cccc3nc(C(F)F)cn23)CC1)c1ccc(F)nc1 [2-254] |
| > 7.30 | Cc1n[nH]c2c(C(=O)N[C@H]3CC[C@@H](Nc4cccc5nc(C(F)(F)F)cn45)CC3)cccc12 [2-183] |
| 7.00 to 7.29 | COc1ccc(C(=O)N[C@H]2CC[C@@H](Nc3cccc4nn(C(F)(F)F)cc34)CC2)cc1 [1-21] |
| 6.30 to 7.00 | O=C(N[C@H]1CC[C@@H](Nc2cccc3nc(C(F)(F)F)cn23)CC1)c1cncc2cn[nH]c12 [2-241] |
| > 7.30 | O=C(N[C@H]1CC[C@@H](Nc2cccc3nc(C(F)(F)F)cn23)CC1)c1ccc(OCCF)cc1 [2-230] |
| 6.30 to 7.00 | O=C(N[C@H]1CC[C@@H](Nc2cccc3nc(C(F)(F)F)cn23)CC1)c1n[nH]c2ccccc12 [2-9] |
| > 7.30 | O=C(N[C@H]1CC[C@@H](Nc2cccc3nc(C(F)(F)F)cn23)CC1)c1ccc(C(F)F)cc1 [2-179] |
| 7.00 to 7.29 | Cn1cc(C(=O)N[C@H]2CC[C@@H](Nc3cccc4nc(C(F)(F)F)cn34)CC2)c(C2CC2)n1 [2-191] |
| 6.30 to 7.00 | Cn1ncc(C(=O)N[C@H]2CC[C@@H](Nc3cccc4nc(C(F)(F)F)cn34)CC2)c1C1CC1 [2-245] |
| 6.30 to 7.00 | O=C(N[C@H]1CC[C@@H](Nc2cccc3nc(C(F)(F)F)cn23)CC1)c1noc2ccccc12 [2-290] |
| > 7.30 | Cc1n[nH]cc1C(=O)N[C@H]1CC[C@@H](Nc2cccc3nc(C(F)(F)F)cn23)CC1 [2-138] |
| 6.30 to 7.00 | CCn1nccc1C(=O)N[C@H]1CC[C@@H](Nc2cccc3sc(C(F)(F)F)cc23)CC1 [2-3] |

Source: patent publication US11667636B2, “Modulators of Mas-related G-protein receptor X2 and related products and methods” (Escient Pharmaceuticals, Inc., priority 2020, dated 2023)
